Measurements reported in patent US20240209019A1, “COMPOUNDS AND METHODS FOR TREATING HYPERKALEMIA” (ARDELYX, INC., priority 2019, published 2024).

Biological target: HSD2 (Homo sapiens (Human), UniProt P80365)
Assay: HSD2 activity: cortisol conversion in human descending colon organoid monolayer cultures (Example 112)
Conditions: human descending colon epithelial cultures on transwells; 30 minute pre-incubation, then 40 nM cortisol for four hours; cortisol HTRF assay
Description: Human descending colon epithelial stem cells were cultured as 3D organoids in accordance with Sato et al. Gastroenterology. […] Cultures were differentiated using SBM containing ENRA and 30 nM aldosterone on day 3, and cultures were used for assay on day 6 or 7. Compounds were diluted in DMSO and serial dilutions prepared by titrating in DMSO. Compounds were then diluted into DMEM/F12. Transwell plates containing descending colon cultures were washed twice with DMEM/F12 and compound was added to the apical compartment. Cells were incubated with test compound for 30 minutes at 37° C., 5% CO2 to equilibrate across the cell membrane. A second compound plate was prepared in which the serially diluted compounds in DMSO were diluted into DMEM/F12 containing 40 nM cortisol. Following the 30 minute pre-incubation step, the apical media was aspirated and compounds diluted in DMEM/F12 with 40 nM cortisol were added to the apical side of the transwell. The plate was then incubated for four hours at 37° C., 5% CO2. Cortisol levels were measured using a cortisol HTRF assay kit as described by the manufacturer (Cisbio). Concentration-response curves were then plotted and IC50 (and pIC50) values were determined using least squares non-linear regression.
Inhibition of HSD2 activity as measured by the inhibition of the conversion of cortisone to cortisol.

Chain of HSD2 (P80365 whole entry): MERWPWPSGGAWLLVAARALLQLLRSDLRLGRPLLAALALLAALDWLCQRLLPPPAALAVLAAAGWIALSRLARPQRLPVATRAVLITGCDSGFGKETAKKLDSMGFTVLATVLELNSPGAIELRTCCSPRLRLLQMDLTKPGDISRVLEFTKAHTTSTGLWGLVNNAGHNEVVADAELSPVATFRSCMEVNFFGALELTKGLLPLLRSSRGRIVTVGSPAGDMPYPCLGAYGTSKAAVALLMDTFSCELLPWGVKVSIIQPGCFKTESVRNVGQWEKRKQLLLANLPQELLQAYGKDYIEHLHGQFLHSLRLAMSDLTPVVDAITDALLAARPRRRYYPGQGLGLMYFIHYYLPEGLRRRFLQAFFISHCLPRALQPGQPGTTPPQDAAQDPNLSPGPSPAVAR

| SMILES | pIC50 |
| --- | --- |
| CC(=O)O[C@H]1CC[C@@]2(C)[C@@H](CC[C@]3(C)[C@@H]2C(=O)C=C2[C@@H]4C[C@@](C)(C(=O)O)CC[C@]4(C)CC[C@]23C)[C@]1(C)C(=O)OCc1oc(=O)oc1C(C)C [Compound 209-3, (2S,4aS,6aS,6bR,8aR,9S,10S,12aS,12bR,14bR)-10-acetoxy-9-(((5-isopropyl-2-oxo-1,3-dioxol-4-yl)methoxy)carbonyl)-2,4a,6a,6b,9,12a-hexamethyl-13-oxo-1,2,3,4,4a,5,6,6a,6b,7,8,8a,9,10,11,12,12a,12b,13,14b-icosahydropicene-2-carboxylic acid] | 7.2 |
| Cc1oc(=O)oc1COC(=O)COC[C@@]1(C)[C@@H]2CC[C@]3(C)[C@H](C(=O)C=C4[C@@H]5C[C@@](C)(C(=O)O)CC[C@]5(C)CC[C@]43C)[C@@]2(C)CC[C@@H]1O [Compound 240-8, (2S,4aS,6aS,6bR,8aR,9R,10S,12aS,12bR,14bR)-10-Hydroxy-2,4a,6a,6b,9,12a-hexamethyl-9-((2-((5-methyl-2-oxo-1,3-dioxol-4-yl)methoxy)-2-oxoethoxy)methyl)-13-oxo-1,2,3,4,4a,5,6,6a,6b,7,8,8a,9,10,11,12,12a,12b,13,14b-icosahydropicene-2-carboxylic acid] | 5 |
| CC(=O)O[C@H]1CC[C@@]2(C)[C@@H](CC[C@]3(C)[C@@H]2C(=O)C=C2[C@@H]4C[C@@](C)(C(=O)O)CC[C@]4(C)CC[C@]23C)[C@]1(C)C(=O)OCc1oc(=O)oc1C [Compound 243-1, (2S,4aS,6aS,6bR,8aR,9S,10S,12aS,12bR,14bR)-10-Acetoxy-2,4a,6a,6b,9,12a-hexamethyl-9-(((5-methyl-2-oxo-1,3-dioxol-4-yl)methoxy)carbonyl)-13-oxo-1,2,3,4,4a,5,6,6a,6b,7,8,8a,9,10,11,12,12a,12b,13,14b-icosahydropicene-2-carboxylic acid] | 7.5 |
| Cc1oc(=O)oc1COC(=O)[C@]1(C)[C@@H](OC(=O)CO)CC[C@@]2(C)[C@H]1CC[C@]1(C)[C@@H]2C(=O)C=C2[C@@H]3C[C@@](C)(C(=O)O)CC[C@]3(C)CC[C@]21C [Compound 244-1, (2S,4aS,6aS,6bR,8aR,9S,10S,12aS,12bR,14bR)-10-(2-Hydroxyacetoxy)-2,4a,6a,6b,9,12a-hexamethyl-9-(((5-methyl-2-oxo-1,3-dioxol-4-yl)methoxy)carbonyl)-13-oxo-1,2,3,4,4a,5,6,6a,6b,7,8,8a,9,10,11,12,12a,12b,13,14b-icosahydropicene-2-carboxylic acid] | 6.8 |
| COC(=O)N[C@H]1CC[C@@]2(C)[C@@H](CC[C@]3(C)[C@@H]2C(=O)C=C2[C@@H]4C[C@@](C)(C(=O)O)CC[C@]4(C)CC[C@]23C)[C@]1(C)C(=O)OCc1oc(=O)oc1C [Compound 281-3, (2S,4aS,6aS,6bR,8aR,9S,10S,12aS,12bR,14bR)-10-((methoxycarbonyl)amino)-2,4a,6a,6b,9,12a-hexamethyl-9-(((5-methyl-2-oxo-1,3-dioxol-4-yl)methoxy)carbonyl)-13-oxo-1,2,3,4,4a,5,6,6a,6b,7,8,8a,9,10,11,12,12a,12b,13,14b-icosahydropicene-2-carboxylic acid] | 6.7 |
| Cc1oc(=O)oc1COC(=O)[C@]1(C)[C@@H](OC(=O)NCCN2CCOCC2)CC[C@@]2(C)[C@H]1CC[C@]1(C)[C@@H]2C(=O)C=C2[C@@H]3C[C@@](C)(C(=O)O)CC[C@]3(C)CC[C@]21C [Compound 286-4, (2S,4aS,6aS,6bR,8aR,9S,10S,12aS,12bR,14bR)-2,4a,6a,6b,9,12a-hexamethyl-9-(((5-methyl-2-oxo-1,3-dioxol-4-yl)methoxy)carbonyl)-10-(((2-morpholinoethyl)carbamoyl)oxy)-13-oxo-1,2,3,4,4a,5,6,6a,6b,7,8,8a,9,10,11,12,12a,12b,13,14b-icosahydropicene-2-carboxylic acid] | 6.9 |
| CCc1oc(=O)oc1COC(=O)[C@]1(C)[C@@H](OC(C)=O)CC[C@@]2(C)[C@H]1CC[C@]1(C)[C@@H]2C(=O)C=C2[C@@H]3C[C@@](C)(C(=O)O)CC[C@]3(C)CC[C@]21C [Compound 316-1, (2S,4aS,6aS,6bR,8aR,9S,10S,12aS,12bR,14bR)-10-acetoxy-9-(((5-ethyl-2-oxo-1,3-dioxol-4-yl)methoxy)carbonyl)-2,4a,6a,6b,9,12a-hexamethyl-13-oxo-1,2,3,4,4a,5,6,6a,6b,7,8,8a,9,10,11,12,12a,12b,13,14b-icosahydropicene-2-carboxylic acid] | 7.5 |
| CC1(C)[C@@H](C(=O)OCC2COC(=O)O2)CC[C@]2(C)[C@H]3C(=O)C=C4[C@@H]5C[C@@](C)(C(=O)O)CC[C@]5(C)CC[C@@]4(C)[C@]3(C)CC[C@@H]12 (stereo partly drawn) [Compound 700-1, (2S,4aS,6aS,6bR,8aS,10S,12aS,12bR,14bR)-2,4a,6a,6b,9,9,12a-heptamethyl-13-oxo-10-{[(2-oxo-1,3-dioxolan-4-yl)methoxy]carbonyl}-1,2,3,4,4a,5,6,6a,6b,7,8,8a,9,10,11,12,12a,12b,13,14b-icosahydropicene-2-carboxylic acid] | 6.1 |
| CSCC(=O)O[C@H]1CC[C@@]2(C)[C@@H](CC[C@]3(C)[C@@H]2C(=O)C=C2[C@@H]4C[C@@](C)(C(=O)O)CC[C@]4(C)CC[C@]23C)[C@]1(C)C(=O)OCc1oc(=O)oc1C(C)C [Compound 701-1, (2S,4aS,6aS,6bR,8aR,9S,10S,12aS,12bR,14bR)-2,4a,6a,6b,9,12a-hexamethyl-10-{[2-(methylsulfanyl)acetyl]oxy}-13-oxo-9-({[2-oxo-5-(propan-2-yl)-2H-1,3-dioxol-4-yl]methoxy}carbonyl)-1,2,3,4,4a,5,6,6a,6b,7,8,8a,9,10,11,12,12a,12b,13,14b-icosahydropicene-2-carboxylic acid] | 7 |
| CC(=O)O[C@]1(C)CC[C@@]2(C)[C@@H](CC[C@]3(C)[C@@H]2C(=O)C=C2[C@@H]4C[C@@](C)(C(=O)O)CC[C@]4(C)CC[C@]23C)[C@]1(C)C(=O)OCc1oc(=O)oc1C(C)C [Compound 702-1, (2S,4aS,6aS,6bR,8aR,9S,10R,12aS,12bR,14bR)-10-(acetyloxy)-2,4a,6a,6b,9,10,12a-heptamethyl-13-oxo-9-({[2-oxo-5-(propan-2-yl)-2H-1,3-dioxol-4-yl]methoxy}carbonyl)-1,2,3,4,4a,5,6,6a,6b,7,8,8a,9,10,11,12,12a,12b,13,14b-icosahydropicene-2-carboxylic acid] | 6.4 |
| CCc1oc(=O)oc1COC(=O)[C@@]1(C)[C@@H]2CC[C@]3(C)[C@H](C(=O)C=C4[C@@H]5C[C@@](C)(C(=O)O)CC[C@]5(C)CC[C@]43C)[C@@]2(C)CC[C@@]1(C)OC(C)=O [Compound 703-1, (2S,4aS,6aS,6bR,8aR,9S,10R,12aS,12bR,14bR)-10-(acetyloxy)-9-{[(5-ethyl-2-oxo-2H-1,3-dioxol-4-yl)methoxy]carbonyl}-2,4a,6a,6b,9,10,12a-heptamethyl-13-oxo-1,2,3,4,4a,5,6,6a,6b,7,8,8a,9,10,11,12,12a,12b,13,14b-icosahydropicene-2-carboxylic acid] | 6.1 |
| CC(=O)O[C@]1(C)CC[C@@]2(C)[C@@H](CC[C@]3(C)[C@@H]2C(=O)C=C2[C@@H]4C[C@@](C)(C(=O)O)CC[C@]4(C)CC[C@]23C)[C@]1(C)C(=O)OCc1oc(=O)oc1C [Compound 704-1, (2S,4aS,6aS,6bR,8aR,9S,10R,12aS,12bR,14bR)-10-(acetyloxy)-2,4a,6a,6b,9,10,12a-heptamethyl-9-{[(5-methyl-2-oxo-2H-1,3-dioxol-4-yl)methoxy]carbonyl}-13-oxo-1,2,3,4,4a,5,6,6a,6b,7,8,8a,9,10,11,12,12a,12b,13,14b-icosahydropicene-2-carboxylic acid] | 6.3 |
| CC(=O)O[C@H]1CC[C@@]2(C)[C@@H](CC[C@]3(C)[C@@H]2C(=O)C=C2[C@@H]4C[C@@](C)(C(=O)O)CC[C@]4(C)CC[C@]23C)[C@]1(C)C(=O)OCc1oc(=O)oc1C(C)(C)C [Compound 705-1, (2S,4aS,6aS,6bR,8aR,9S,10S,12aS,12bR,14bR)-10-(acetyloxy)-9-{[(5-tert-butyl-2-oxo-2H-1,3-dioxol-4-yl)methoxy]carbonyl}-2,4a,6a,6b,9,12a-hexamethyl-13-oxo-1,2,3,4,4a,5,6,6a,6b,7,8,8a,9,10,11,12,12a,12b,13,14b-icosahydropicene-2-carboxylic acid] | 6.6 |
| CCCc1oc(=O)oc1COC(=O)[C@]1(C)[C@@H](OC(C)=O)CC[C@@]2(C)[C@H]1CC[C@]1(C)[C@@H]2C(=O)C=C2[C@@H]3C[C@@](C)(C(=O)O)CC[C@]3(C)CC[C@]21C [Compound 706-1, (2S,4aS,6aS,6bR,8aR,9S,10S,12aS,12bR,14bR)-10-(acetyloxy)-2,4a,6a,6b,9,12a-hexamethyl-13-oxo-9-{[(2-oxo-5-propyl-2H-1,3-dioxol-4-yl)methoxy]carbonyl}-1,2,3,4,4a,5,6,6a,6b,7,8,8a,9,10,11,12,12a,12b,13,14b-icosahydropicene-2-carboxylic acid] | 6.7 |
| CC(=O)O[C@H]1CC[C@@]2(C)[C@@H](CC[C@]3(C)[C@@H]2C(=O)C=C2[C@@H]4C[C@@](C)(C(=O)O)CC[C@]4(C)CC[C@]23C)[C@]1(C)C(=O)OCc1oc(=O)oc1-c1ccccc1 [Compound 707-1, (2S,4aS,6aS,6bR,8aR,9S,10S,12aS,12bR,14bR)-10-(acetyloxy)-2,4a,6a,6b,9,12a-hexamethyl-13-oxo-9-{[(2-oxo-5-phenyl-2H-1,3-dioxol-4-yl)methoxy]carbonyl}-1,2,3,4,4a,5,6,6a,6b,7,8,8a,9,10,11,12,12a,12b,13,14b-icosahydropicene-2-carboxylic acid] | 7.1 |
| COCC(=O)O[C@H]1CC[C@@]2(C)[C@@H](CC[C@]3(C)[C@@H]2C(=O)C=C2[C@@H]4C[C@@](C)(C(=O)O)CC[C@]4(C)CC[C@]23C)[C@]1(C)C(=O)OCc1oc(=O)oc1C(C)C [Compound 708-1, (2S,4aS,6aS,6bR,8aR,9S,10S,12aS,12bR,14bR)-10-[(2-methoxyacetyl)oxy]-2,4a,6a,6b,9,12a-hexamethyl-13-oxo-9-({[2-oxo-5-(propan-2-yl)-2H-1,3-dioxol-4-yl]methoxy}carbonyl)-1,2,3,4,4a,5,6,6a,6b,7,8,8a,9,10,11,12,12a,12b,13,14b-icosahydropicene-2-carboxylic acid] | 6.3 |
